In patent publication US8327467B2, “Anthranilic acid derivative or salt thereof” (Toyama Chemical Co., Ltd., priority 2005, dated 2012) one finds inhibition data, which are given here for 45 compounds.

The test system of the experiment is MMP-13. As to the kind of experiment: MMP-13 production inhibition test. Format: cell-based. Conditions: 30 μmol/L; human cartilage derived cell line SW1353, IL-1β 10 ng/mL, 16 hours after stimulation, MMP-13 in culture supernatant by ELISA; read-out: Inhibition rate (%) at 30 μmol/L. The method, then:
MMP-13 Production Inhibition Test
6.8×10^3 human cartilage derived cell line SW1353 cells were suspended in 100 μL of Dulbecco modified Eagle's medium supplemented with 10% fetal calf serum, plated on 96-well plates and cultured for 3 days. After the culture medium was changed to Dulbecco modified Eagle's medium containing 0.2% lactalbumin hydrolysate and the cells were cultured for 6 hours, test compounds were added and then IL-1β was added to obtain the final concentration of 10 ng/mL 1 hour later. 16 hours after the stimulation, supernatant was collected and the amount of MMP-13 in the culture supernatant was determined with an ELISA kit (Amersham). The inhibition rate was calculated from the amount of MMP-13 in the presence of a test compound assuming that the amount of MMP-13 was 100% in the absence of the test compound.
Consider `Cc1ccc(CCc2ccc(C(=O)O)c(Nc3ccc(F)cc3)c2)cc1` [Example 252, 2-(4-Fluoroanilino)-4-(2-(4-methylphenyl)ethyl)benzoic acid], for which the inhibition at 30 µM was found to be 96%.

Take `O=C(O)c1ccc(Oc2ccccc2)cc1Nc1ccc2c(c1)OCO2` [Example 43, 2-((Benzo-1,3-dioxol-5-yl)amino)-4-phenoxybenzoic acid]: the inhibition at 30 µM was 93%.

Consider `O=C(O)c1ccc(Oc2ccccc2)cc1NCc1ccc(F)cc1` [Example 49, 2-(4-Fluorobenzylamino)-4-phenoxybenzoic acid], for which the inhibition at 30 µM is 85%.

Turning to `COc1ccc(-c2ccc(C(=O)O)c(Nc3ccc(F)cc3)c2)cc1` [Example 9, 2-(4-fluoroanilino)-4-(4-methoxyphenyl)benzoic acid], the inhibition at 30 µM was 93%.

As for `Cc1cccc(Nc2cc(CCc3ccccc3)ccc2C(=O)O)c1C` [Example 173, 2-(2,3-Dimethylanilino)-4-phenethylbenzoic acid], the inhibition at 30 µM is 97%.

Take `O=C(O)c1ccc(-c2ccccc2)cc1NCC=Cc1ccccc1` [Example 350, 2-(Cinnamylamino)-4-phenylbenzoic acid]: the inhibition at 30 µM was determined as 91%.

Take `O=C(O)c1ccc(CCc2ccccc2)cc1Nc1ccc(-n2cccn2)cc1` [Example 363, 4-Phenethyl-2-(4-(1H-pyrazol-1-yl)phenylamino)benzoic acid]: the inhibition at 30 µM turned out to be 96%.

As for `O=C(O)c1ccc(-c2cccc(Cl)c2)cc1Nc1cccc(O)c1` [Example 271, 4-(3-chlorophenyl)-2-((3-hydroxyphenyl)amino)benzoic acid], the inhibition at 30 µM worked out at 97%.

As to `O=C(O)c1ccc(/C=C/c2cccc(O)c2)cc1Nc1ccc(F)cc1` [Example 126, 2-(4-fluoroanilino)-4-((E)-2-(3-hydroxyphenyl)vinyl)benzoic acid], the inhibition at 30 µM worked out at 94%.

Take `O=C(O)c1ccc(-c2ccccc2)cc1Nc1ccc(OC(F)(F)F)cc1` [Example 190, 4-Phenyl-2-(4-(trifluoromethoxy)anilino)benzoic acid]: the inhibition at 30 µM amounted to 97%.

Consider `O=C(O)c1ccc(Oc2ccccc2)cc1Nc1ccccc1` [Example 46, 2-Anilino-4-phenoxybenzoic acid], for which the inhibition at 30 µM worked out at 93%.

Turning to `CC(=O)Nc1cccc(CCc2ccc(C(=O)O)c(Nc3ccc(F)cc3)c2)c1` [Example 262, 4-(2-(3-Acetamidophenyl)ethyl)-2-(4-fluoroanilino)benzoic acid], the inhibition at 30 µM is 80%.

For the compound `O=C(O)c1ccc(N2CCc3ccccc32)cc1Nc1ccc(F)cc1` [Example 243, 2-(4-fluoroanilino)-4-(indolin-1-yl)benzoic acid], the inhibition at 30 µM came to 97%.

Consider `Cc1ccc(Nc2cc(CCc3ccccc3)ccc2C(=O)O)c(C)c1` [Example 172, 2-(2,4-Dimethylanilino)-4-phenethylbenzoic acid], for which the inhibition at 30 µM is 97%.

Take `CS(=O)(=O)c1ccc(-c2ccc(C(=O)O)c(Nc3ccc(F)cc3)c2)cc1` [Example 11, 2-(4-fluoroanilino)-4-(4-(methanesulfonyl)phenyl)benzoic acid]: the inhibition at 30 µM was 62%.

For the compound `O=C(O)c1ccc(-c2ccccc2)cc1Nc1cccc(OC(F)(F)F)c1` [Example 191, 4-Phenyl-2-(3-(trifluoromethoxy)anilino)benzoic acid], the inhibition at 30 µM came out at 97%.

For `O=C(O)c1ccc(-c2ccccc2OC(F)(F)F)cc1Nc1ccc(F)cc1` [Example 220, 2-(4-Fluoroanilino)-4-(2-(trifluoromethoxy)phenyl)benzoic acid], the inhibition at 30 µM is 98%.

With `O=C(O)c1ccc(CCc2ccc3c(c2)OCCO3)cc1Nc1cccc(O)c1` [Example 293, 4-(2-(2,3-dihydro[1,4]benzodioxin-6-yl)ethyl)-2-((3-hydroxyphenyl)amino)benzoic acid], the inhibition at 30 µM came to 87%.

For `COc1ccc(Nc2cc(Oc3ccccc3)ccc2C(=O)O)c(OC)c1` [Example 45, 2-(2,4-Dimethoxyanilino)-4-phenoxybenzoic acid], the inhibition at 30 µM is 73%.

Regarding `CN(C)c1ccccc1Nc1cc(-c2ccccc2)ccc1C(=O)O` [Example 372, 2-((2-(dimethylamino)phenyl)amino)-4-phenylbenzoic acid], the inhibition at 30 µM is 97%.

In the case of `O=C(O)c1ccc(NCc2ccccc2)cc1Nc1ccc(F)cc1` [Example 67, 4-(benzylamino)-2-(4-fluoroanilino)benzoic acid], the inhibition at 30 µM is 67%.

As to `O=C(O)c1ccc(Oc2ccccc2)cc1NCc1ccccc1` [Example 52, 2-(benzylamino)-4-phenoxybenzoic acid], the inhibition at 30 µM came to 77%.

`O=C(O)c1ccc(/C=C/c2ccc(F)cc2)cc1Nc1ccc(F)cc1` [Example 132, 2-(4-Fluoroanilino)-4-((E)-2-(4-fluorophenyl)vinyl)benzoic acid]: the inhibition at 30 µM came to 95%.

For `O=C(O)c1ccc(CCc2ccccc2)cc1Nc1ccc2[nH]ccc2c1` [Example 331, 2-((1H-Indol-5-yl)amino)-4-phenethylbenzoic acid], the inhibition at 30 µM amounted to 97%.

For `O=C(O)c1ccc(-c2ccc3[nH]ccc3c2)cc1Nc1ccc(F)cc1` [Example 13, 2-(4-Fluoroanilino)-4-(1H-indol-5-yl)benzoic acid], the inhibition at 30 µM was determined as 95%.

Take `COc1ccc(Nc2cc(-c3ccccc3)ccc2C(=O)O)cc1` [Example 185, 2-(4-methoxyanilino)-4-phenylbenzoic acid]: the inhibition at 30 µM stood at 79%.

On to `O=C(O)c1ccc(CCc2ccccc2)cc1Nc1ccc(C(F)(F)F)cc1` [Example 170, 4-Phenethyl-2-(4-(trifluoromethyl)anilino)benzoic acid], for which the inhibition at 30 µM was found to be 97%.

For the compound `COc1cccc(CCc2ccc(C(=O)O)c(Nc3ccccc3C)c2)c1` [Example 290, 4-(2-(3-Methoxyphenyl)ethyl)-2-(2-methylanilino)benzoic acid], the inhibition at 30 µM was 98%.

As for `O=C(O)c1ccc(/C=C/c2ccc3c(c2)OCO3)cc1Nc1ccc(F)cc1` [Example 140, 4-((E)-2-(Benzo-1,3-dioxol-5-yl)vinyl)-2-(4-fluoroanilino)benzoic acid], the inhibition at 30 µM was 93%.

With `O=C(O)c1ccc(CCCc2ccccc2)cc1Nc1ccc(F)cc1` [Example 81, 2-(4-fluoroanilino)-4-(3-phenylpropyl)benzoic acid], the inhibition at 30 µM was 97%.

Take `O=C(O)c1ccc(-c2ccccc2)cc1Nc1ccccc1Cl` [Example 343, 2-(2-Chloroanilino)-4-phenylbenzoic acid]: the inhibition at 30 µM is 98%.

Regarding `O=C(O)c1ccc(N2CCc3ccccc32)cc1Nc1cccc(O)c1` [Example 286, 2-((3-hydroxyphenyl)amino)-4-(indolin-1-yl)benzoic acid], the inhibition at 30 µM was 96%.

In the case of `O=C(O)c1ccc(-c2ccccc2)cc1Nc1cccc2cccnc12` [Example 340, 4-Phenyl-2-((quinolin-8-yl)amino)benzoic acid], the inhibition at 30 µM was 97%.

As for `Cc1ccc(-c2ccc(C(=O)O)c(Nc3ccc(F)cc3)c2)cc1C` [Example 214, 4-(3,4-Dimethylphenyl)-2-(4-fluoroanilino)benzoic acid], the inhibition at 30 µM is 98%.

For `O=C(O)c1ccc(-c2ccc(OC(F)(F)F)cc2)cc1Nc1ccc(F)cc1` [Example 222, 2-(4-Fluoroanilino)-4-(4-(trifluoromethoxy)phenyl)benzoic acid], the inhibition at 30 µM amounted to 98%.

Consider `O=C(O)c1ccc(-c2ccc3c(c2)OCO3)cc1Nc1ccc(F)cc1` [Example 7, 4-(Benzo-1,3-dioxol-5-yl)-2-(4-fluoroanilino)benzoic acid], for which the inhibition at 30 µM is 95%.

In the case of `O=C(O)c1ccc(CCc2ccc(OC(F)(F)F)cc2)cc1Nc1ccc(F)cc1` [Example 259, 2-(4-fluoroanilino)-4-(2-(4-(trifluoromethoxy)phenyl)ethyl)benzoic acid], the inhibition at 30 µM is 96%.

In the case of `COc1cccc(CCc2ccc(C(=O)O)c(Nc3ccc(F)cc3)c2)c1` [Example 166, 2-(4-Fluoroanilino)-4-(2-(3-methoxyphenyl)ethyl)benzoic acid], the inhibition at 30 µM is 92%.

For the compound `O=C(O)c1ccc(CCc2ccccc2)cc1Nc1cccc(-n2cccn2)c1` [Example 362, 4-Phenethyl-2-(3-(1H-pyrazol-1-yl)phenylamino)benzoic acid], the inhibition at 30 µM came to 97%.

`O=C(O)c1ccc(NC(=O)c2csc3ccccc23)cc1Nc1ccc(F)cc1` [Example 87, 4-(benzothiophene-3-carboxamido)-2-(4-fluoroanilino)benzoic acid]: the inhibition at 30 µM was 97%.

For the compound `O=C(O)c1ccc(NCCCc2ccccc2)cc1Nc1ccc(F)cc1` [Example 69, 2-(4-Fluoroanilino)-4-((3-phenylpropyl)amino)benzoic acid], the inhibition at 30 µM worked out at 94%.

As for `O=C(O)c1ccc(-c2cccc3[nH]ccc23)cc1Nc1ccc(F)cc1` [Example 234, 2-(4-fluoroanilino)-4-(1H-indol-4-yl)benzoic acid], the inhibition at 30 µM is 97%.

Take `COc1ccc(CCc2ccc(C(=O)O)c(Nc3ccc(F)cc3)c2)cc1` [Example 160, 2-(4-Fluoroanilino)-4-(2-(4-methoxyphenyl)ethyl)benzoic acid]: the inhibition at 30 µM is 93%.

For the compound `COc1ccc(-c2ccc(C(=O)O)c(Nc3ccc(F)cc3)c2)cc1OC` [Example 209, 4-(3,4-Dimethoxyphenyl)-2-(4-fluoroanilino)benzoic acid], the inhibition at 30 µM was 82%.

On to `O=C(O)c1ccc(Oc2ccccc2)cc1NC1CCCCC1` [Example 48, 2-(cyclohexylamino)-4-phenoxybenzoic acid], for which the inhibition at 30 µM is 85%.
